Data as given in patent publication US12121521B2, “Uses of salt-inducible kinase (SIK) inhibitors for treating osteoporosis” (The General Hospital Corporation, priority 2016, dated 2024).
pIC50: −log10 of the molar value.

Assays:
Ocy454 cells = test: Gene expression in Ocy454 cells by RT-qPCR; format: cell-based, mouse; details: 0.5 μM, 3.5 hours; FIG. 21
Description: In FIG. 21, Ocy454 cells (osteocyte cell line, also known at 6-9 cells) were cultured at 37° C. for 2 weeks to permit osteocyte differentiation. The cells were then treated with the indicated compound (0.5 μM) for 3.5 hours, and gene expression was analyzed by RT-qPCR. SOST expression was reduced by the indicated compounds. RANKL expression was increased by the indicated compounds. […] Therefore, these changes in gene expression may be due to on-target effects of the indicated compound.
For all experiments, a single cell subclone of Ocy454 cells (17, 18) was used. Cells were passages in alpha-MEM supplemented with 10% heat-inactivated fetal bovine serum and 1% antibiotics (penicillin/streptomycin, Fungizone) at 33° C. with 5% CO2. Cells were plated at 50,000 cells/ml and allowed to reach confluency at 33° C. (typically in 2-3 days). At this point, cells were transferred to 37° C. for subsequent analysis. For immunoblotting, cells were always analyzed after culture at 37° C. for 7 days. For gene expression analysis, cells were analyzed after culture at 37° C. for 14 days. Mycoplasma contamination was ruled out by PCR. Cells were routinely assayed for SOST expression at 37° C. and examined for osteocytic morphology.
Total RNA was extracted from cultured cells using RNeasy (Qiagen, Venlo, Netherlands) following the manufacturer's instructions. For long bone RNA isolation, mice were sacrificed and both femurs were rapidly dissected on ice. Soft tissue was removed and epiphyses cut. Bone marrow cells were then removed by serial flushing with ice-cold PBS. TRIzol (Life Technologies) was added and sampled were frozen at −80C and then homogenized. RNA was then extracted per the manufacturer's instructions, and further purified on RNeasy microcolumns prior to cDNA synthesis. RNA with A260/280 ratio <1.7 was not used for downstream analysis. For cDNA synthesis, 1 μg RNA was used in synthesis reactions according to the instructions of the manufacturer (Primescript RT, Takara). SYBR Green-based qPCR detection was performed using FastStart Universal SYBR Green (Roche, Basel, Switzerland) on a StepOne Plus (Applied Biosystems, Carlsbad, CA) thermocycler.

[1] = test system: oophorectomized (OVX) female C57B/6 mice; test: OVX mice: micro-CT, histomorphometry, bone turnover markers; format: in vivo, mouse
Description: Assessment of bone morphology and microarchitecture was performed with high-resolution micro-computed tomography (pCT40; Scanco Medical, Brüttisellen, Switzerland). In brief, the distal femoral metaphysis and mid-diaphysis were scanned using 70 kVp peak x-ray tube potential, 113 mAs x-ray tube current, 200 ms integration time, and 10-μm isotropic voxel size. Cancellous bone was assessed in the distal metaphysis and cortical bone was assessed in the mid-diaphysis. The femoral metaphysis region began 1700 μm proximal to the distal growth plate and extended 1500 μm distally. Cancellous bone was separated from cortical bone with a semiautomated contouring program. For the cancellous bone region, bone volume fraction (BV/TV, %), trabecular thickness (Tb.Th, mm), trabecular separation (Tb.Sp, mm), trabecular number (Tb.N, 1/mm), connectivity density (Conn.D or ConnD, 1/mm^3), and structure model index (SMI) were assessed. Transverse CT slices were also acquired in a 500 μm long region at the femoral mid-diaphysis to assess total cross-sectional area, cortical bone area, and medullary area (Tt.Ar, Ct.Ar, and Ma.Ar, respectively, all mm^2); bone area fraction (Ct.Ar/Tt.Ar, %), cortical thickness (Ct.Th, mm), porosity (Ct.Po, %) and minimum (Imin, mm^4), maximum (Imax, mm^4), and polar (J, mm^4) moments of inertia. Bone was segmented from soft tissue using the same threshold, 300 mg HA/cm^3 for trabecular and 733 mg HA/cm^3 for cortical bone. Scanning and analyses adhered to the guidelines for the use of micro-CT for the assessment of bone architecture in rodents (74). For the primary spongiosa region (where intermittent PTH treatment has its predominant effect) analyzed in FIG. 13A, coronal CT slices were evaluated in a 500 μm (50 slices) region located centrally in the bone. […] The primary spongiosa bone region was identified by semi-manually contouring the region of interest. Images were thresholded using an adaptive-iterative algorithm. The average adaptive-iterative threshold of control mice (WT, vehicle treated) for the region of interest (299 mgHA/cm^3) were then used to segment bone from soft tissue for all distal femur images. Micro-CT analysis was done based on sample numbers in a completely blinded manner.
Right tibia from 8-week-old mice were subjected to bone histomorphometric analysis. […] The structural, dynamic and cellular parameters were calculated and expressed according to the standardized nomenclature (75).
48 female C57B/6 mice were subjected to sham surgery (SHAM; n=24) or oophorectomy (n=24) at 12 weeks of age. […] The mice were assessed by micro-CT (μ-CT) of the femur and L5 vertebrae, and static/dynamic histomorphometry of the tibia.

male C57B/6 mice = test: YKL-05-099 dose range once daily for two weeks: histomorphometry; format: in vivo, mouse; details: 18 mg/kg once daily
Description: Right tibia from 8-week-old mice were subjected to bone histomorphometric analysis. The mice were injected 20 mg/kg body weight of calcein and 40 mg/kg body weight of demeclocycline on 7 and 2 days before necropsy, respectively. The tibia was dissected and fixed in 70% ethanol for 3 days. Fixed bones were dehydrated in graded ethanol, then infiltrated and embedded in methylmethacrylate without demineralization. Undecalcified 4-μm-thick longitudinal sections were obtained using microtome (RM2255, Leica Biosystems., IL, USA). Sections were left unstained for dynamic parameters measurement, and consecutive sections were stained with tartrate-resistant acid phosphatase and counterstained with toluidine blue for measurement of cellular parameters. A standard dynamic bone histomorphometric analysis of the tibial metaphysis was done using the Osteomeasure analyzing system (Osteometrics Inc., Decatur, GA, USA). Measurements were performed in the area of secondary spongiosa, 200 μm below the proximal growth plate. The observer was blinded to the experimental genotype at the time of measurement. The structural, dynamic and cellular parameters were calculated and expressed according to the standardized nomenclature (75).
(§1) Static and dynamic histomorphometry was performed (see FIG. 24). […] Effects on osteoclast differentiation were assessed by TRAP secretion assays and counting multi-nucleated TRAP-positive cells (see FIG. 26). M-CSF signaling in primary macrophages, was assessed by immunoblotting for MCSF-receptor Y723 phosphorylation and ERK1/2 phosphorylation (see FIG. 27).

[2] = test system: M-CSF+RANKL-primed osteoclastogenesis; test: Osteoclast differentiation of bone marrow-derived macrophages (TRAP); format: cell-based, murine; details: in vitro; read-out: IC50 of inhibition of M-CSF+RANKL-primed osteoclastogenesis
Description: as §1

SMILES | RANKL expression (Ocy454 cells) | SOST expression (Ocy454 cells) | osteoblast numbers ([1]; FIG. 32A) | osteoclast activity / eroded surfaces ([1]; FIG. 32C) | bone formation rate ([1]; FIG. 33C) | trabecular bone mass ([1]; distal femur and L5 vertebrae) | Ob.S/BS (male C57B/6 mice; p<0.01 vs vehicle) | trabecular bone volume (male C57B/6 mice; p<0.01 vs vehicle, in % (unit assumed)) | Oc.S/BS (male C57B/6 mice; p<0.05 vs vehicle) | pIC50 [2]
COc1ccc(N2C(=O)N(c3c(C)cccc3C)Cc3cnc(Nc4ccc(C5CCN(C)CC5)c(OC)c4)nc32)c(OC)c1 [YKL-05-093] | most active in these experiments at reducing SOST and increasing RANKL | most active in these experiments at reducing SOST | – | – | – | – | – | – | – | –
COc1ccc(N2C(=O)N(c3c(C)cccc3Cl)Cc3cnc(Nc4ccc(C5CCN(C)CC5)cc4OC)nc32)nc1 [YKL-05-099] | – | – | increased osteoblast numbers | reduced eroded surfaces | increased | increased trabecular bone mass at both skeletal sites | 16.8±1.3 | 16.3±2.0 | 1.59±0.4 | 7.28
